Data on 34 compounds can be found in patent publication EP1724268A1, “COMPOUND HAVING TGF-BETA INHIBITORY ACTIVITY AND PHARMACEUTICAL COMPOSITION CONTAINING SAME” (KIRIN BEER KABUSHIKI KAISHA, priority 2004, dated 2005).

This assay has as its system TGFβ signal. The assay is described as follows: TGFβ signal inhibitory activity, (SBE)4-Luc reporter in A549 cells (Test Examples 1A and 1B). In kind it is cell-based, human. The conditions noted are these: Homo sapiens, A549, read-out: TGFβ inhibition rate, %; for inhibition at 1 µM: test compound 1 µM. An outline of the steps:
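Stable A549 line carrying (SBE)4-Luc Smad3-binding reporter treated with compound plus TGFβ-1 (2 ng/ml) for 4 hr; luciferase read by chemiluminescence. Percent inhibition relative to TGFβ-only and untreated cells, tested at 3 µM and 10 µM, some also at 1 µM.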

Where [1] appears, read: test compound 3 µM, TGFβ-1 2 ng/ml, 4 hr, Table 1A.
Where [2] appears, read: 3 µM, compounds of Reference Examples (Test Example 1B).
The mark [3] stands for this setting: 10 µM, compounds of Reference Examples (Test Example 1B).
Setting [4] is: test compound 10 µM, TGFβ-1 2 ng/ml, 4 hr, Table 1A.
[5] abbreviates: test compound 3 µM, Reference Examples, Table 1B.
The mark [6] stands for this setting: test compound 10 µM, Reference Examples, Table 1B.

Where two headings read alike, the source gives them in different places.

With `Cc1cc(Oc2ccnc3ccsc23)c(-c2ccccn2)nc1C` [Compound 28, 5,6-Dimethyl-3-(thieno[3,2-b]pyridin-7-yloxy)-[2,2']bipyridine], where the note is “TGFβ-1 2 ng/ml, 4 hr, Table 1A”, the inhibition – broadly, the relative decrease from the control value, in per cent – at 1 µM was 96%. Also, the inhibition at 3 µM under setting [1] came to 100%.
On to `COc1cc2nccc(Oc3cc4ccccc4nc3Br)c2cc1OC` [Compound r281, 4-(2-Bromo-quinolin-3-yloxy)-6,7-dimethoxy-quinoline], for which, under setting [2], the inhibition at 3 µM is 88%. The inhibition at 10 µM under setting [3] was 100%.
On to `COc1ccc2ncnc(Oc3cc(C)c(C)nc3-c3ccc(C)cn3)c2c1` [Compound 39, 6-Methoxy-4-(5,6,5'-trimethyl-[2,2']bipyridin-3-yloxy)-quinazoline], for which, under setting [1], the inhibition at 3 µM turned out to be 88%. In addition, the inhibition at 10 µM under setting [4] came to 99%.
Regarding `COc1cc2nccc(Oc3ccc(Br)cc3C(C)=O)c2cc1OC` [r34], the inhibition at 3 µM under setting [5] amounted to 0%. Further, under setting [6], the inhibition at 10 µM was determined as 78%.
On to `Cc1cc(Oc2ccnc3cc(Br)ccc23)c(-c2ccccn2)nc1C` [Compound 14, 3-(7-Bromo-quinolin-4-yloxy)-5,6-dimethyl-[2,2']bipyridine], for which the inhibition at 3 µM under setting [1] came to 100%. Further, the inhibition at 10 µM under setting [4] came out at 100%.
For `CCc1ccc(Oc2ccnc3ccc(OCCOC(=O)C(C)(C)C)cc23)c(-c2ncccn2)n1` [Compound 207, 2-[4-(6-Ethyl-2-pyrimidin-2-yl-pyridin-3-yloxy)-quinolin-6-yloxy]-ethyl 2,2-dimethyl-propanate], under setting [1], the inhibition at 3 µM stood at 93%.
Turning to `COc1cc2c(Oc3cc(C)c(C)nc3-c3cccnc3)ccnc2cc1O` [Compound r345], under setting [2], the inhibition at 3 µM was found to be 61%. The inhibition at 10 µM under setting [3] came to 93%.
Regarding `COc1cc2c(Oc3ccc(C)cc3C(=O)c3ccccc3)ccnc2cc1OCCCN1CCC(CO)CC1` [r135], the inhibition at 3 µM under setting [5] is 100%. Besides, the inhibition at 10 µM under setting [6] came to 100%.
`COc1cc2nccc(Oc3ccc(C)nc3C(OC(C)=O)c3ccccc3)c2cc1OC` (centres unmarked) [r218]: under setting [2], the inhibition at 3 µM was 21%. The inhibition at 10 µM under setting [3] stood at 56%.
Regarding `COc1cc2nccc(Oc3cc(C)c(C)nc3-c3ccc(O)nc3)c2cc1OC` [Compound r430], the inhibition at 3 µM under setting [2] amounted to 19%. For the same compound, under setting [3], the inhibition at 10 µM turned out to be 78%.
For the compound `COc1cc2nccc(Oc3c(C)nc4ccccc4c3Br)c2cc1OC` [r291], the inhibition at 3 µM under setting [2] was found to be 14%. In addition, the inhibition at 10 µM under setting [3] was determined as 78%.
With `COc1cc2nccc(Oc3cc(C)c(C)cc3C(C)=NN)c2cc1OC` [Compound r193, {1-[2-(6,7-Dimethoxy-quinolin-4-yloxy)-4,5-dimethylphenyl]-ethylidene}-hydrazine], the inhibition at 3 µM under setting [2] stood at 74%. Besides, the inhibition at 10 µM under setting [3] stood at 99%.
On to `COc1cc2c(Oc3cc4ccccc4nc3C)ccnc2cc1OCCN(C)C` [Compound r355], for which, under setting [2], the inhibition at 3 µM was 100%. Further, the inhibition at 10 µM under setting [3] came to 100%.
Take `CCc1ccc(Oc2ccnc3cc(C(N)=O)c(Cl)cc23)c(-c2ccccn2)n1` [Compound 185, 6-Chloro-4-(6-ethyl-[2,2']bipyridinyl-3-yloxy)-quinoline-7-carboxylic acid amide]: the inhibition at 3 µM under setting [1] came out at 96%. For the same compound, under setting [4], the inhibition at 10 µM amounted to 100%.
Consider `COc1cc2c(Oc3cc4ccccc4nc3C)ccnc2cc1OCC(CO)(CO)CO` [Compound r388], for which, under setting [2], the inhibition at 3 µM is 88%. In addition, the inhibition at 10 µM under setting [3] is 100%.
For `COc1cc2c(Oc3cc4ccccc4nc3C(C)=O)ccnc2cc1OCCO` [Compound r392], the inhibition at 3 µM under setting [2] turned out to be 93%. For the same compound, the inhibition at 10 µM under setting [3] came to 100%.
`COc1cc2nccc(Oc3ccccc3C(=O)OC(C)C)c2cc1OC` [Compound r93]: the inhibition at 3 µM under setting [5] is 44%. In addition, the inhibition at 10 µM under setting [6] is 88%.
On to `COc1cc2nccc(Oc3cc(C)c(C)cc3I)c2cc1OC` [Compound r164, 4-(2-Iodo-4,5-dimethyl-phenoxy)-6,7-dimethoxy-quinoline], for which the inhibition at 3 µM under setting [2] worked out at 54%. For the same compound, the inhibition at 10 µM under setting [3] turned out to be 98%.
Take `Cc1ccc(-c2ccc3nccc(Oc4cc(C)c(C)nc4-c4ccccn4)c3c2)s1` [Compound 165, 5,6-Dimethyl-3-[6-(5-methyl-thiophen-2-yl)-quinolin-4-yloxy]-[2,2']bipyridine]: the inhibition at 3 µM under setting [1] amounted to 90%. For the same compound, the inhibition at 10 µM under setting [4] is 100%.
On to `CCN(C)CCOc1ccc2nccc(Oc3ccc(C)nc3-c3ncccn3)c2c1` [Compound 223, ethyl-methyl-{2-[4-(6-methyl-2-pyrimidin-2-yl-pyridin-3-yloxy)-quinolin-6-yloxy]-ethyl}-amine], for which, under setting [1], the inhibition at 3 µM stood at 52%. For the same compound, the inhibition at 10 µM under setting [4] came out at 90%.
As for `COc1cc2nccc(Oc3ccc(C)cc3Br)c2cc1OC` [Compound r4], the inhibition at 3 µM under setting [5] amounted to 20%. Further, the inhibition at 10 µM under setting [6] came to 78%.
For the compound `COc1cc2nccc(Oc3cc4ccccc4nc3-c3cccnc3)c2cc1OC` [Compound r288], the inhibition at 3 µM under setting [2] came to 94%. Moreover, the inhibition at 10 µM under setting [3] turned out to be 100%.
Regarding `COc1cc2c(Oc3cc4ccccc4nc3C)ccnc2cc1OC[C@H](O)CO` [Compound r386], the inhibition at 3 µM under setting [2] amounted to 99%.
Consider `COc1cc2nccc(Oc3cc(C)c(C)cc3-c3ccccn3)c2cc1OC` [Compound r169], for which the inhibition at 3 µM under setting [2] turned out to be 99%. Moreover, the inhibition at 10 µM under setting [3] was found to be 100%.
The like results for `COc1cc2nccc(Oc3ccc(C)nc3-c3ccc(Oc4ccccc4)cc3)c2cc1OC` [Compound r250] were, in that order, 34% and 81%.
Turning to `COc1cc2nccc(Oc3cc(C)c(C(C)C)cc3C(C)=O)c2cc1OC` [r183], the inhibition at 3 µM under setting [2] was determined as 82%. In addition, under setting [3], the inhibition at 10 µM stood at 100%.
For `COc1cc2nccc(Oc3ccc(C)cc3C(=O)N3CCCCC3)c2cc1OC` [r109], the inhibition at 3 µM under setting [5] worked out at 5%. Under setting [6], the inhibition at 10 µM was determined as 66%.
As for `Cc1cc(Oc2ncnc3sc(C)c(C)c23)c(-c2ccccn2)nc1C` [Compound 35, 3-(5,6-Dimethyl-thieno[2,3-d]pyrimidin-4-yloxy)-5,6-dimethyl-[2,2']bipyridine], the inhibition at 3 µM under setting [1] worked out at 95%. Further, the inhibition at 10 µM under setting [4] came out at 100%.
Consider `COc1cc2c(Oc3cc(C)c(C)nc3-c3ccccn3)ccnc2cc1OCC(CO)CO` [Compound r343], for which the inhibition at 3 µM under setting [2] came to 93%.
`CCN(CC)CCOc1cc2nccc(Oc3ccc(C)cc3C(=O)c3ccccc3)c2cc1OC` [Compound r125]: the inhibition at 3 µM under setting [5] turned out to be 98%. The inhibition at 10 µM under setting [6] was found to be 100%.
For `Cc1cc(Oc2ccnc3cc(-c4ccc(O)cc4)ccc23)c(-c2ccccn2)nc1C` [Compound 107, 4-[4-(5,6-Dimethyl-[2,2']bipyridinyl-3-yloxy)-quinolin-7-yl]-phenol], under setting [1], the inhibition at 3 µM came out at 100%. Also, the inhibition at 10 µM under setting [4] came out at 100%.
For `COc1cc2c(Oc3ccc(C)cc3C(=O)c3ccccc3)ccnc2cc1OCCCNCCO` [Compound r133], the inhibition at 3 µM under setting [5] is 100%. For the same compound, the inhibition at 10 µM under setting [6] amounted to 100%.
Turning to `COc1cc2ncnc(Oc3cc(C)c(C)nc3-c3cccnc3)c2cc1OC` [Compound 48, 4-(5,6-Dimethyl-[2,3']bipyridinyl-3-yloxy)-6,7-dimethoxy-quinazoline], where the note is “TGFβ-1 2 ng/ml, 4 hr, Table 1A”, the inhibition at 1 µM came to 28%. Under setting [1], the inhibition at 3 µM is 64%.
As for `COc1cc(Oc2ccnc3cc(OC)c(OC)cc23)c(C(C)=O)cc1OC` [Compound r39], the inhibition at 3 µM under setting [5] turned out to be 0%. Further, the inhibition at 10 µM under setting [6] came out at 91%.
